From patent US7803823B2, “2-amino-4,5-trisubstituted thiazolyl derivatives” (Janssen Pharmaceutica NV, priority 2001, dated 2010)

Key:
IL-12p40 production = experiment: In vitro inhibition of IL-12p40 production in human blood (LPS-stimulated whole blood, sandwich ELISA); format: cell-based; settings: lipopolysaccharide 100 ng/ml, 24 hours, read-out: % inhib. IL-12 (p40); for inhibition at 1 µM: test dose 1 × 10^−6 M
Procedure: (§1) Peripheral blood from healthy male donors was drawn into heparinized syringes (12.5 U heparin/ml). Blood samples were three-fold diluted in RMPI 1640 medium (Life Technologies, Belgium) supplemented with 2 mM L-glutamine, 100 U/ml penicillin and 100 μg/ml streptomycin, and 300 μl fractions were distributed in 24-well multidisc plates (Nunc, Roskilde, Denmark). Blood samples were preincubated (60 minutes at 37° C.) in a humidified 6% CO2-atmosphere with 100 μl of drug solvent (final concentration 0.02% dimethylsulfoxide in RPMI 1640) or with 100 μl of an appropriate dose of test compound before being stimulated by the addition of 100 μl of lipopolysaccharide at a final concentration of 100 ng/ml. After 24 hours, cell-free supernatant fluids were collected by centrifugation and stored at −20° C. until tested for the presence of IL-12p40.
(§2) Cytokine protein concentrations were determined by sandwich ELISA as described in Van Wauwe et al. (1996, Inflamm Res, 45, 357-363). Murine monoclonals used as capture antibodies to human cytokines were obtained from R&D Systems (Abingdon, United Kingdom) and code named MAB210 and MAB611 for TNF-α and IL-12 respectively. Biotinylated goat polyclonal antibodies used to detect human cytokines were from R&D Systems (BAF210, BAF219). Cytokine levels were calculated from standard curves using recombinant cytokines supplied by R&D Systems.

TNF-α production = experiment: In vitro inhibition of TNF-α production in human blood (LPS-stimulated whole blood, sandwich ELISA); format: cell-based; settings: lipopolysaccharide 100 ng/ml, 6 hours, read-out: % inhib. TNF-α
Procedure: as §1, with “After 6” for “After 24”, “of TNF-α.” for “of IL-12p40.”
as §2

SMILES: Fc1sc(Nc2cccc(C(F)(F)F)c2)nc1-c1cccnc1 [Compound 1]
- melting point: 208 to 210 °C
- inhibition at 1 µM (IL-12p40 production): 54%
- inhibition at 0.1 µM (IL-12p40 production; test dose 1 × 10^−7 M): 56%
- inhibition at 1 µM (TNF-α production; test dose 1 × 10^−6 M): 60%
- inhibition at 0.1 µM (TNF-α production; test dose 1 × 10^−7 M): 58%

SMILES: CC(O)c1sc(Nc2cccc(C(F)(F)F)c2)nc1-c1cccnc1 (stereo not drawn) [Compound 14]
- inhibition at 1 µM (IL-12p40 production): 52%
